Test results reported in US20240124406A1, “INHIBITORS OF TRANSCRIPTIONAL ENHANCED ASSOCIATE DOMAIN (TEAD) AND USES THEREOF” (Dana-Farber Cancer Institute, Inc., priority 2020, published 2024).

test system: NCI-H226 cells; test: Antiproliferation assay (2D adherent cell viability, CellTiter-Glo); type: cell-based; conditions: Homo sapiens, 120 h, 5 days treatment, cell viability by CellTiter-Glo
Protocol: The compounds were evaluated in vitro. In addition, an anti-proliferation assay was performed using NCI-H226 cells (FIG. 2).
The mixture of 2-fluoro-5-nitrobenzonitrile (1 g, 6.0 mmol), cyclohexanamine (0.6For 2D adherent cell viability experiment, the cells were seeded at 384-well plate (Corning, no. 3570) at the density of 200 cells/well. The next day, compounds were added using Janus workstation (PerkinElmer). After 5 days treatment, the cell viability was measured by CellTiter-Glo kit (Promega, no. G7570) as the manufacturer recommended.

SMILES	IC50 [nM]
C=CC(=O)Nc1ccc(NC2CCC(F)(F)CC2)c(-c2ncccn2)c1 [Compound A-5, N-(4-(4,4-difluorocyclohexylamino)-3-(pyrimidin-2-yl)phenyl)acrylamide]	8
C=CC(=O)Nc1ccc(Nc2ccc(C(F)(F)F)cc2)c(-c2nccc(OCCO)n2)c1 [Compound A-11, N-(3-(4-(2-hydroxyethoxy)pyrimidin-2-yl)-4-(4-(trifluoromethyl)phenylamino)phenyl)acrylamide]	40
C=CC(=O)Nc1cnc(Oc2ccc(C(F)(F)F)cc2)c(-c2ncccn2)c1 [Compound A-12, N-(5-(pyrimidin-2-yl)-6-(4-(trifluoromethyl)phenoxy)pyridin-3-yl)acrylamide]	14
C=CC(=O)Nc1ccc(Nc2ccc(C(F)(F)F)cc2)c(-c2ncccn2)c1 [Compound A-21, N-(3-(pyrimidin-2-yl)-4-(4-(trifluoromethyl)phenylamino)phenyl) Acrylamide]	4

The remaining lines, values ahead:

IC50 [nM]	SMILES
17	C=CC(=O)Nc1ccc(Nc2ccc(C(F)(F)F)cc2)c(-c2nccc(N3CCC(O)C3)n2)c1 (stereo not shown) [Compound A-7, N-(3-(4-(3-hydroxypyrrolidin-1-yl)pyrimidin-2-yl)-4-(4-(trifluoromethyl)phenylamino)phenyl)acrylamide]
31	C=CC(=O)Nc1ccc(Nc2ccc(C(F)(F)F)cc2)c(-c2cccnn2)c1 [Compound A-13, N-(3-(pyridazin-3-yl)-4-(4-(trifluoromethyl)phenylamino)phenyl) acrylamide]
1100	C=CC(=O)Nc1ccc(Nc2ccc(C(F)(F)F)cc2)c(-c2cc[nH]c(=O)c2)c1 [Compound A-14, N-(3-(2-oxo-1,2-dihydropyridin-4-yl)-4-(4-(trifluoromethyl)phenylamino)phenyl)acrylamide]
